Target: human orexin type 2 receptor (hOX2R) (Homo sapiens (Human), UniProt O43614)
Experiment: Measurement of orexin type 2 receptor agonist activity (Experimental Example 2-1, FLIPR TETRA, intracellular Ca2+)
Format: cell-based
Settings: CHO dhfr- cells expressing hOX2R; for Emax: read-out: Emax (%); for Emax at 30 µM: value at 30 uM concentration, orexin B as full agonist = 100%
[1] = agonist activity, 10 nM human orexin B = 100%

Sequence of human orexin type 2 receptor (hOX2R) (O43614 whole entry): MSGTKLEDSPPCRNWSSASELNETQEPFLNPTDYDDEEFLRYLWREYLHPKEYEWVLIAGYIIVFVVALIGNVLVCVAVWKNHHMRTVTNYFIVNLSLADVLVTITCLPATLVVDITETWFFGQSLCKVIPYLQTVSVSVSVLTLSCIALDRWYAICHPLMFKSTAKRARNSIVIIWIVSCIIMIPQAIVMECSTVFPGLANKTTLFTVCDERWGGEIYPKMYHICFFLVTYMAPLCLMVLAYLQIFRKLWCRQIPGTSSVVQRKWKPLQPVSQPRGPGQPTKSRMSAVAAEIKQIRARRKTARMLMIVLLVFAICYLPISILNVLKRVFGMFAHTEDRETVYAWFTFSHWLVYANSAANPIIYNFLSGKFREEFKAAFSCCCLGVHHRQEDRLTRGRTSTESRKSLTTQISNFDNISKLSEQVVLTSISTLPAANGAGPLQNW

Structure (SMILES) | EC50 (FLIPR TETRA, Fluo-4AM) [µM] | Emax (FLIPR TETRA, Fluo-4AM) [%] | EC50 [1] [µM] | Emax at 30 µM [%]
CS(=O)(=O)N[C@H]1CCCN(C(=O)C2CC2)[C@H]1COC1CCN(c2ccccc2Cl)CC1 (relative stereo) [Example 201, N-(cis-2-(((1-(2-chlorophenyl)piperidin-4-yl)oxy)methyl)-1-(cyclopropylcarbonyl)piperidin-3-yl)methanesulfonamide] | 2 | 92 |  | 
CS(=O)(=O)N[C@H]1CCCN(C(=O)C2COC2)[C@H]1CO[C@H]1CC[C@@H](c2ccccc2)CC1 (relative stereo) [Example 120, N-(cis-1-(oxetan-3-ylcarbonyl)-2-(((cis-4-phenylcyclohexyl)oxy)methyl)piperidin-3-yl)methanesulfonamide] |  |  | 0.061 | 96
CS(=O)(=O)N[C@H]1CCCN(C(=O)C2CC2)[C@H]1CO[C@H]1CC[C@@H](c2c(F)ccc(F)c2F)CC1 [Example 258, N-((2R,3S)-1-(cyclopropylcarbonyl)-2-(((cis-4-(2,3,6-trifluorophenyl)cyclohexyl)oxy)methyl)piperidin-3-yl)methanesulfonamide] | 0.00072 | 101 |  | 
CCc1ccccc1[C@H]1CC[C@@H](OC[C@@H]2NCCC[C@@H]2NS(C)(=O)=O)CC1 (relative stereo) [Example 311, N-(cis-2-(((cis-4-(2-ethylphenyl)cyclohexyl)oxy)methyl)-piperidin-3-yl)methanesulfonamide] | 3.2 | 98 |  | 
CC(=O)N1CCC[C@H](NS(C)(=O)=O)[C@@H]1CO[C@H]1CC[C@@H](c2ccn(C)n2)CC1 (relative stereo) [Example 158, N-(cis-1-acetyl-2-(((cis-4-(1-methyl-1H-pyrazol-3-yl)cyclohexyl)oxy)methyl)piperidin-3-yl)methanesulfonamide] | 1.6 | 83 |  | 
CC(C)(C)OC(=O)N1CCC[C@H](NS(C)(=O)=O)[C@@H]1CO[C@H]1CC[C@@H](c2ccccc2)CC1 (relative stereo) [Example 155, tert-butyl cis-3-((methylsulfonyl)amino)-2-(((cis-4-phenylcyclohexyl)oxy)methyl)piperidine-1-carboxylate] |  | 95 |  | 
COC(=O)N1CCC[C@H](NS(C)(=O)=O)[C@@H]1CO[C@H]1CC[C@@H](c2ccccc2OC)CC1 [Example 277, methyl (2R,3S)-2-(((cis-4-(2-methoxyphenyl)cyclohexyl)oxy)methyl)-3-((methylsulfonyl)amino)piperidine-1-carboxylate] | 0.0029 | 95 |  | 
CC(C)[C@H]1CC[C@@H](OC[C@H]2[C@@H](NS(C)(=O)=O)CCCN2C(=O)C2CC(O)C2)CC1 (stereo partly drawn) [Example 92, N-((2R,3S)-1-((3-hydroxycyclobutyl)carbonyl)-2-(((cis-4-isopropylcyclohexyl)oxy)methyl)piperidin-3-yl)methanesulfona] |  |  | 0.37 | 92
CC(C)[C@H]1CC[C@@H](OC[C@H]2[C@@H](NS(C)(=O)=O)CCCN2S(=O)(=O)C2CC2)CC1 (relative stereo) [Example 62, N-(cis-1-(cyclopropylsulfonyl)-2-(((cis-4-isopropylcyclohexyl)oxy)methyl)piperidin-3-yl)methanesulfonamide] |  |  | 2.3 | 93
CS(=O)(=O)N[C@H]1CCCN[C@H]1CO[C@H]1CC[C@@H](c2cccc(F)c2F)CC1 [Example 18, N-((2R,3S)-2-(((cis-4-(2,3-difluorophenyl)cyclohexyl)oxy)methyl)piperidin-3-yl)methanesulfonamide] |  |  | 0.52 | 96
CS(=O)(=O)N[C@H]1CCCN(C(=O)C2CCCCC2)[C@H]1COC1CCN(c2ccccc2F)CC1 (relative stereo) [Example 236, N-(cis-1-(cyclohexylcarbonyl)-2-(((1-(2-fluorophenyl)piperidin-4-yl)oxy)methyl)piperidin-3-yl)methanesulfonamide] | 1.8 | 86 |  | 
COC(=O)N1CCC[C@H](NS(C)(=O)=O)[C@@H]1CO[C@H]1CC[C@@H](c2cc(F)cc(F)c2F)CC1 [Example 244, methyl (2R,3S)-3-((methylsulfonyl)amino)-2-(((cis-4-(2,3,5-trifluorophenyl)cyclohexyl)oxy)methyl)piperidine-1-carboxylate] | 0.0026 | 97 |  | 
CC(=O)N1CCC[C@H](NS(C)(=O)=O)[C@@H]1CO[C@H]1CC[C@@H](c2ccccc2F)CC1 [Example 240, N-((2R,3S)-1-acetyl-2-(((cis-4-(2-fluorophenyl)cyclohexyl)oxy)methyl)piperidin-3-yl)methanesulfonamide] | 0.024 | 107 |  | 
CC(C)CC(=O)N1CCC[C@H](NS(C)(=O)=O)[C@@H]1COC1CCN(c2ccccc2F)CC1 (relative stereo) [Example 230, N-(cis-2-(((1-(2-fluorophenyl)piperidin-4-yl)oxy)methyl)-1-(3-methylbutanoyl)piperidin-3-yl)methanesulfonamide] | 2.6 | 80 |  | 
CS(=O)(=O)N[C@H]1CCCN(C(=O)[C@H]2CCC(=O)O2)[C@H]1CO[C@H]1CC[C@@H](c2ccccc2)CC1 [Example 183, N-((2R,3S)-1-(((2R)-5-oxotetrahydrofuran-2-yl)carbonyl)-2-(((cis-4-phenylcyclohexyl)oxy)methyl)piperidin-3-yl)methanesulfonamide] | 0.04 | 94 |  | 
CC(C)OC(=O)N1CCC[C@H](NS(C)(=O)=O)[C@@H]1COC1CCN(c2ncccn2)CC1 (relative stereo) [Example 255, isopropyl cis-3-((methylsulfonyl)amino)-2-(((1-(pyrimidin-2-yl)piperidin-4-yl)oxy)methyl)piperidine-1-carboxylate] | 0.0081 | 102 |  | 
CS(=O)(=O)N[C@H]1CCCN(C(=O)C2(C#N)CC2)[C@H]1CO[C@H]1CC[C@@H](c2ccccc2)CC1 [Example 187, N-((2R,3S)-1-((1-cyanocyclopropyl)carbonyl)-2-(((cis-4-phenylcyclohexyl)oxy)methyl)piperidin-3-yl)methanesulfonamide] | 0.37 | 93 |  | 
CCCC(=O)N1CCC[C@H](NS(C)(=O)=O)[C@@H]1COC1CCN(c2ccccc2F)CC1 (relative stereo) [Example 227, N-(cis-1-butyryl-2-(((1-(2-fluorophenyl)piperidin-4-yl)oxy)methyl)piperidin-3-yl)methanesulfonamide] | 2.4 | 102 |  | 
CC(=O)N1CCC[C@H](NS(C)(=O)=O)[C@@H]1CO[C@H]1CC[C@@H](c2c(F)ccc(F)c2F)CC1 [Example 22, N-((2R,3S)-1-acetyl-2-(((cis-4-(2,3,6-trifluorophenyl)cyclohexyl)oxy)methyl)piperidin-3-yl)methanesulfonamide] |  |  | 0.0053 | 98
CCS(=O)(=O)N[C@H]1CCCN(C(C)=O)[C@H]1CO[C@H]1CC[C@@H](C(C)C)CC1 [Example 33, N-((2R,3S)-1-acetyl-2-(((cis-4-isopropylcyclohexyl)oxy)methyl)piperidin-3-yl)ethanesulfonamide] |  |  | 0.068 | 98
CS(=O)(=O)N[C@H]1CCCN(C(=O)C2CCOCC2)[C@H]1CO[C@H]1CC[C@@H](c2ccccc2)CC1 (relative stereo) [Example 121, N-(cis-2-(((cis-4-phenylcyclohexyl)oxy)methyl)-1-(tetrahydro-2H-pyran-4-ylcarbonyl)piperidin-3-yl)methanesulfonamide] | 0.0088 | 111 |  | 
CCNC(=O)N1CCC[C@H](NS(C)(=O)=O)[C@@H]1CO[C@H]1CC[C@@H](c2cccc(OC(F)(F)F)c2)CC1 (relative stereo) [Example 300, cis-N-ethyl-3-((methylsulfonyl)amino)-2-(((cis-4-(3-(trifluoromethoxy)phenyl)cyclohexyl)oxy)methyl)piperidine-1-carboxamide] | 0.0097 | 94 |  | 
CC(C)[C@H]1CC[C@@H](OC[C@H]2[C@@H](NS(C)(=O)=O)CCCN2C(=O)C2CCOCC2)CC1 (relative stereo) [Example 60, N-(cis-2-(((cis-4-isopropylcyclohexyl)oxy)methyl)-1-(tetrahydro-2H-pyran-4-ylcarbonyl)piperidin-3-yl)methanesulfonamide] |  |  | 0.14 | 101
CC(=O)OCC(=O)N1CCC[C@H](NS(C)(=O)=O)[C@@H]1CO[C@H]1CC[C@@H](C(C)C)CC1 (relative stereo) [Example 47, 2-(cis-2-(((cis-4-isopropylcyclohexyl)oxy)methyl)-3-((methylsulfonyl)amino)piperidin-1-yl)-2-oxoethyl acetate] |  |  |  | 101
CC(C)OC(=O)N1CCC[C@H](NS(C)(=O)=O)[C@@H]1CO[C@H]1CCN(c2ncccn2)C[C@H]1F (relative stereo) [Example 342, isopropyl cis-2-(((cis-3-fluoro-1-(pyrimidin-2-yl)piperidin-4-yl)oxy)methyl)-3-((methylsulfonyl)amino)piperidine-1-carboxylate] | 0.03 | 104 |  | 
CCNC(=O)N1CCC[C@H](NS(C)(=O)=O)[C@@H]1COC1CCC(OC)CC1 (relative stereo) [Example 126, cis-N-ethyl-2-(((4-methoxycyclohexyl)oxy)methyl)-3-((methylsulfonyl)amino)piperidine-1-carboxamide] | 2.6 | 85 |  | 
CS(=O)(=O)N[C@H]1CCCN(C(=O)C2CC2)[C@H]1CO[C@H]1CC[C@@H](c2cc(F)cc(F)c2)CC1 [Example 242, N-((2R,3S)-1-(cyclopropylcarbonyl)-2-(((cis-4-(3,5-difluorophenyl)cyclohexyl)oxy)methyl)piperidin-3-yl)methanesulfonamide] | 0.00088 | 99 |  | 
CCNC(=O)N1CCC[C@H](NS(C)(=O)=O)[C@@H]1CO[C@H]1CC[C@@H](c2ccc(F)cc2F)CC1 (relative stereo) [Example 146, cis-2-(((cis-4-(2,4-difluorophenyl)cyclohexyl)oxy)methyl)-N-ethyl-3-((methylsulfonyl)amino)piperidine-1-carboxamide] | 0.0025 | 100 |  | 
